Data published in ChEMBL document CHEMBL1201862, “PubChem BioAssay data set” (2004).
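Briefly, cells in 96-well plates were exposed to five compound concentrations for 48 h, and endpoints were estimated by linear interpolation. Abbreviation: GI50, concentration required for 50% inhibition of growth.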 The source made the active and inactive calls. No stated cut-off is given here; in the data, active = GI50 up to about 1.1 µM and inactive = higher.

Assays:
Assay in all cases: NCI anticancer screen, dose series, 48 h
[1] = system: A549
[2] = system: ACHN
[3] = system: CCRF-CEM
[4] = system: HCT-116
[5] = system: HCT-15
[6] = system: HOP-92
[7] = system: Hs-578T
[8] = system: K562
[9] = system: M14
[10] = system: MCF7
[11] = system: MOLT-4
[12] = system: NCI-H460
[13] = system: OVCAR-4
[14] = system: SF-268
[15] = system: SF-295
[16] = system: SK-MEL-28
[17] = system: SK-MEL-5
[18] = system: SNB-19
[19] = system: SW-620
[20] = system: UO-31

SMILES	GI50 [1]	GI50 [2]	GI50 [3]	GI50 [4]	GI50 [5]	GI50 [6]	GI50 [7]	GI50 [8]	GI50 [9]	GI50 [10]	GI50 [11]	GI50 [12]	GI50 [13]	GI50 [14]	GI50 [15]	GI50 [16]	GI50 [17]	GI50 [18]	GI50 [19]	GI50 [20]
O=C1NC(=O)C(c2c[nH]c3cc(Br)ccc23)=C1c1cnc[nH]1	53.1 µM (inactive)	43.7 µM (inactive)	34.8 µM (inactive)	25.8 µM (inactive)	54.5 µM	> 100 µM (inactive)	52.7 µM (inactive)	25.6 µM (inactive)	51.6 µM (inactive)	21.7 µM (inactive)	23.9 µM (inactive)	24 µM (inactive)	32.1 µM (inactive)	29.5 µM (inactive)	16.3 µM (inactive)	62.1 µM (inactive)	11 µM (inactive)	> 100 µM (inactive)	55.8 µM (inactive)	17.7 µM (inactive)
CC(=O)CCNc1ccc(-c2cc(-c3ccc(N(C)C)cc3)nc3ccc4ccccc4c23)cc1	34.1 µM (inactive)	17.8 µM (inactive)	8.07 µM (inactive)	18.5 µM (inactive)	49.7 µM	79.3 µM (inactive)	39.2 µM (inactive)	19.6 µM (inactive)	32.4 µM (inactive)	27.1 µM (inactive)	6.76 µM (inactive)	35.2 µM (inactive)	6.52 µM (inactive)	> 44.5 µM (inactive)	> 59.4 µM (inactive)	34.8 µM (inactive)	59.8 µM (inactive)	> 100 µM (inactive)	> 100 µM (inactive)	23.5 µM (inactive)
CN1C[C@@H]2CCCN2P1Oc1cccc2cccnc12 (stereo not given in full)	44.5 µM (inactive)	49 µM (inactive)	2.41 µM (inactive)	8.69 µM (inactive)	16.6 µM	> 100 µM (inactive)	17.5 µM (inactive)	9.42 µM (inactive)	33.7 µM (inactive)	12 µM (inactive)	6.76 µM (inactive)	35.4 µM (inactive)	32.8 µM (inactive)	16 µM (inactive)	85.7 µM (inactive)	73.1 µM (inactive)	41.5 µM (inactive)	> 100 µM (inactive)	18.7 µM (inactive)	34.9 µM (inactive)
Clc1ccccc1C(Nc1cnccn1)Nc1cnccn1	> 100 µM (inactive)	> 100 µM (inactive)	0.675 µM (active)	98.2 µM (inactive)	8.71 µM	> 100 µM (inactive)	> 100 µM (inactive)	4.12 µM (inactive)	5.85 µM (inactive)	> 100 µM (inactive)	23.6 µM (inactive)	> 100 µM (inactive)	> 100 µM (inactive)	> 100 µM (inactive)	> 100 µM (inactive)	> 100 µM (inactive)	> 100 µM (inactive)	> 100 µM (inactive)	4.36 µM (inactive)	> 100 µM (inactive)
O=C(OCCC12CC3CC(CC(C3)C1)C2)c1ccc(NCc2cc(O)ccc2O)cc1	2.14 µM (inactive)	1.63 µM (inactive)	0.101 µM (active)	1.26 µM (inactive)	0.611 µM	3.74 µM (inactive)	0.213 µM (active)	1.66 µM (inactive)	1.24 µM (inactive)	0.557 µM (active)	0.262 µM (active)	1.51 µM (inactive)	0.904 µM (active)	2.49 µM (inactive)	2.02 µM (inactive)	0.849 µM (active)	1.12 µM (inactive)	1.26 µM (inactive)	1.63 µM (inactive)	0.376 µM (active)
CC(C)[C@@H]1CC[C@@H](C)C[C@H]1OC(=O)/C=C1\C(C(=O)O[C@@H]2C[C@H](C)CC[C@H]2C(C)C)[C@H]2C=C[C@@H]1O2 (stereo not given in full)	80.2 µM (inactive)	27.1 µM (inactive)	23.4 µM (inactive)	49.9 µM (inactive)	92.3 µM	63 µM (inactive)	72.3 µM (inactive)	33.4 µM (inactive)	89.5 µM (inactive)	25.1 µM (inactive)	35.8 µM (inactive)	37.9 µM (inactive)	> 100 µM (inactive)	76.4 µM (inactive)	25.2 µM (inactive)	> 100 µM (inactive)	40.4 µM (inactive)	> 100 µM (inactive)	29.9 µM (inactive)	> 100 µM (inactive)
Cc1ccc(N/N=C2\C3=C(CCC(C)(C)O3)C(=O)c3ccccc32)cc1	16 µM (inactive)	23.9 µM (inactive)	15.1 µM (inactive)	21.3 µM (inactive)	27.5 µM	43.5 µM (inactive)	11.6 µM (inactive)	32.4 µM (inactive)	16.9 µM (inactive)	13.7 µM (inactive)	28.8 µM (inactive)	17.4 µM (inactive)	18.2 µM (inactive)	30.3 µM (inactive)	14.7 µM (inactive)	21.9 µM (inactive)	4.17 µM (inactive)	20.8 µM (inactive)	33.8 µM (inactive)	23.4 µM (inactive)
COC1C(=O)N(SC)C1c1ccccc1Cl (stereo not given)	> 100 µM (inactive)	18.8 µM (inactive)	14.6 µM (inactive)	11.3 µM (inactive)	22.3 µM	36.1 µM (inactive)	> 100 µM (inactive)	25.9 µM (inactive)	28.1 µM (inactive)	19.7 µM (inactive)	9.62 µM (inactive)	> 100 µM (inactive)	16.7 µM (inactive)	> 100 µM (inactive)	> 100 µM (inactive)	> 100 µM (inactive)	95.5 µM (inactive)	> 100 µM (inactive)	21.4 µM (inactive)	17.5 µM (inactive)
CN(C)CCc1c2c(nc3ccccc13)C(=O)c1cccnc1C2=O	1.24 µM (inactive)	0.084 µM (active)	0.682 µM (active)	0.0838 µM (active)	0.0348 µM	1.49 µM (inactive)	1.15 µM (inactive)	0.154 µM (active)	0.102 µM (active)	0.122 µM (active)	2.57 µM (inactive)	0.0826 µM (active)	0.31 µM (active)	0.238 µM (active)	0.203 µM (active)	0.492 µM (active)	0.177 µM (active)	0.652 µM (active)	0.0873 µM (active)	0.197 µM (active)
CC(C)=CCC[C@@H](C)C1=C(O)C(=O)C(C)=C(Nc2ccccc2I)C1=O	11.8 µM (inactive)	16.4 µM (inactive)	3.03 µM (inactive)	11.8 µM (inactive)	6.56 µM	14.5 µM (inactive)	9.12 µM (inactive)	12.5 µM (inactive)	17 µM (inactive)	23.2 µM (inactive)	2.22 µM (inactive)	10.1 µM (inactive)	5.01 µM (inactive)	11.3 µM (inactive)	4.22 µM (inactive)	18.3 µM (inactive)	9.79 µM (inactive)	25.4 µM (inactive)	21.9 µM (inactive)	10.1 µM (inactive)
Cc1nnc(-n2c(O)cc(=O)n(-c3ccccc3)c2=S)nc1/C=C/c1ccc(N(C)C)cc1	8.63 µM (inactive)	9.23 µM (inactive)	8.2 µM (inactive)	11.9 µM (inactive)	4.88 µM	21.5 µM (inactive)	4.99 µM (inactive)	5.81 µM (inactive)	13.7 µM (inactive)	3.42 µM (inactive)	15.6 µM (inactive)	8.79 µM (inactive)	11.4 µM (inactive)	22.4 µM (inactive)	12.9 µM (inactive)	18.5 µM (inactive)	3.58 µM (inactive)	20.4 µM (inactive)	12.9 µM (inactive)	4.11 µM (inactive)
NS(=O)(=O)c1nn2c(Br)c(-c3ccccc3)nc2s1	6.44 µM (inactive)	4.45 µM (inactive)	2.65 µM (inactive)	2.04 µM (inactive)	2.86 µM	8.77 µM (inactive)	9.48 µM (inactive)	2.2 µM (inactive)	3.31 µM (inactive)	3.95 µM (inactive)	1.61 µM (inactive)	5.98 µM (inactive)	10.6 µM (inactive)	8.38 µM (inactive)	8.97 µM (inactive)	9.06 µM (inactive)	2.42 µM (inactive)	9.46 µM (inactive)	3.62 µM (inactive)	4.02 µM (inactive)
NC1=NC(c2ccc(Cl)cc2)N(c2ccc(S(=O)(=O)Nc3ncccn3)cc2)C(N)=N1 (stereo not given)	> 100 µM (inactive)	> 100 µM (inactive)	> 100 µM (inactive)	> 100 µM (inactive)	> 100 µM	> 100 µM (inactive)	> 100 µM (inactive)	> 100 µM (inactive)	> 100 µM (inactive)	> 100 µM (inactive)	54.8 µM (inactive)	> 100 µM (inactive)	> 100 µM (inactive)	> 100 µM (inactive)	> 100 µM (inactive)	> 100 µM (inactive)	> 100 µM (inactive)	> 100 µM (inactive)	> 100 µM (inactive)	> 100 µM (inactive)
Cc1oc2nc1C(=O)NCc1nc(cs1)C(=O)N[C@H](C(C)C)c1nc(cs1)C(=O)N[C@H]2C	47.2 µM (inactive)	> 100 µM (inactive)	> 100 µM (inactive)	45.8 µM (inactive)	52.8 µM	61.1 µM (inactive)	75.3 µM (inactive)	54.8 µM (inactive)	> 100 µM (inactive)	82.2 µM (inactive)	81.7 µM (inactive)	66.7 µM (inactive)	> 100 µM (inactive)	85.5 µM (inactive)	18.4 µM (inactive)	> 100 µM (inactive)	23.1 µM (inactive)	> 100 µM (inactive)	> 100 µM (inactive)	37.2 µM (inactive)
